Patent US8178506B2, “Oligomeric compounds and compositions for use in modulation of small non-coding RNAs” (Regulus Therapeutics Inc., priority 2003, dated 2012)

Columns and labels:
[1] = test system: 3′-UTR of the LIM domain only 4 (LMO4) gene; test: pGL3-LMO4 luciferase assay in HeLa cells; assay type: cell-based, human; conditions: 48 hours
Text: In one embodiment, an expression system based on the pGL3-Control (Promega Corp., Madison Wis.) vector containing a CMV promoter controlling expression of a luciferase reporter sequence was used in transient transfections of HeLa cells with plasmids expressing miRNA or pri-miRNA mimics. To assess the ability of miRNA mimics to bind and regulate the expression of the luciferase reporter gene, two reporter plasmids were constructed: 1) a synthetic DNA fragment comprising two sites perfectly complementary to mir-143 were inserted into the pGL3-Control luciferase reporter vector, to create the pGL3-mir-143 sensor plasmid, and 2) a DNA fragment comprising the 3′-UTR of the LIM domain only 4 (LMO4) gene (predicted to be regulated by mir-143) was inserted into pGL3-Control to create pGL3-LMO4; this fragment was PCR-amplified using a primer beginning at position 1261 of the LMO4 sequence (GenBank Accession NM_006769.2, incorporated herein as SEQ ID: 809) and the downstream primer hybridizing to the poly-A tail. In each of these plasmids, the target site was placed downstream of the luciferase coding sequence and upstream of the polyadenylation signal in the 3′-UTR of the luciferase reporter vector. The unmodified pGL3-Control luciferase reporter vector was used as a control.
HeLa cells were routinely cultured and passaged as described, and on the day before transfection with expression or reporter plasmids, the HeLa cells were seeded onto 24-well plates 50,000 cells/well. Cells were transfected according to standard published procedures with various combinations of plasmids using 2 μg Lipofectamine™ 2000 Reagent (Invitrogen) per μg of plasmid DNA, or, when transfecting oligomeric compounds, 1.25 μg of Lipofectamine™ 2000 Reagent per 100 nM oligonucleotide or double-stranded RNA. The luciferase signal in each well was normalized to the Renilla luciferase (RL) activity produced from a co-transfected plasmid, pRL-CMV, which was transfected at 0.5 μg per well. […]

[2] = test system: mir-143 binding site in 3′-UTR of ERK5; test: pGL3-ERK5-3′UTR luciferase assays in HeLa cells; assay type: cell-based, human; conditions: for luciferase expression: HeLa cells, 24 hours
Method: An expression system based on the pGL3-Control (Promega Corp., Madison Wis.) reporter vector and comprising predicted miRNA binding sites was used in transient transfections of HeLa cells with plasmids expressing oligomeric compounds mimicking miRNAs, pre-miRNAs or pri-miRNAs in order to assess the ability of these miRNA mimics to bind and regulate the expression of the luciferase reporter. The effect of increasing the copy number of the miRNA-binding site in the target was also tested by including multiple binding sites in artificial reporter constructs. It is understood that the presence of multiple miRNA-binding sites in a target can include binding sites for different miRNAs.
The following reporter plasmids were constructed by cloning the specified fragment into the XbaI site of the pGL3-control plasmid, placing the potential miRNA-binding site in the 3′-UTR of the luciferase reporter: The reporter plasmid pGL3-bulge(×3) contains three contiguous copies of the sequence ([…]; herein incorporated as SEQ ID NO: 874) which represents a sequence complementary to the mir-143 miRNA except that it is missing 2 nucleotides such that the mir-143 miRNA is presumed to adopt a bulged structure when it hybridizes to this target sequence. The pGL3-GLO1 reporter plasmid contains a DNA fragment comprising the 3′-UTR of the GLO1 sequence; this fragment was PCR-amplified using a primer beginning at nucleotide number 621 of the GLO1 sequence (GenBank Accession NM_006708.1, SEQ ID NO: 821) and the downstream primer hybridizing to the poly A tail. The pGL3-PP2A reporter plasmid contains a DNA fragment comprising the 3′-UTR of the PP2A gene; this fragment was PCR-amplified using a primer beginning at nucleotide number 921 of the PP2A sequence (GenBank Accession NM_004156.1) and the downstream primer hybridizing to the poly A tail. The reporter plasmid pGL3-ERK5-3′-UTR(×1) contains one copy of the sequence […] (herein incorporated as SEQ ID NO: 875), found in the 3′-UTR of ERK5 and predicted by Lewis, et al. to be bound by the mir-143 miRNA, and the reporter plasmid pGL3-ERK5-3′UTR(×3) has three contiguous copies of this sequence. The reporter plasmid pGL3-ERK5-3′UTR(ext) contains one copy of the sequence […] (herein incorporated as SEQ ID NO: 876), which includes an additional ten nucleotides at either end of the mir-143 binding site in 3′-UTR of ERK5 predicted by Lewis, et al. (Lewis et al., Cell, 2003, 115, 787-798). The plasmids pGL3-ERK5-cds(×1), pGL3-ERK5-cds(×2), pGL3-ERK5-cds(×3), and pGL3-ERK5-cds(×5) contain one, two, three or five contiguous copies, respectively, of the novel mir-143 binding site ([…]; herein incorporated as SEQ ID NO: 877) we identified within the coding sequence of ERK5. The unmodified pGL3-Control luciferase reporter vector was used as a negative control, and the pGL3-mir-143 sensor reporter plasmid was used as a positive control.
HeLa cells were routinely cultured and passaged as described. In some embodiments, HeLa cells were transfected with 0.05 μg of the relevant pGL3-sensor plasmid and 0.01 μg pRL-CMV plasmid. Additionally, in some embodiments, cells were treated at various dosages (11 nM, 33 nM, and 100 nM) with the following oligomeric compound mimics: 1) ds-mir-143, or 2) ds-Control as described. In accordance with methods described in Example 12, a luciferase assay was performed 24-hours after transfection. The results, shown in Tables 40 and 41, are an average of three trials. Data are presented as percent untreated control (luciferase plasmid only, not treated with oligomeric compound) luciferase expression, normalized to pRL-CMV levels.

Substance: ds-mir-143: double-stranded RNA of ISIS 342199 hybridized to its perfect complement ISIS 342200 (sense UGAGAUGAAGCACUGUAGCUCA; antisense UGAGCUACAGUGCUUCAUCUCA; RNA, backbone not given here)
- luciferase expression (% lucif. only control) ([1]; 4 nM): 151.6 % lucif. only control
- luciferase expression (% lucif. only control) ([1]; 20 nM): 140.1 % lucif. only control
- luciferase expression (% lucif. only control) ([1]; 100 nM): 128.4 % lucif. only control
- luciferase activity from pGL3-ERK5-3′UTR(×1) ([2]; HeLa, 11, 33 and 100 nM): did not inhibit luciferase activity
- luciferase activity from pGL3-ERK5-3′UTR(×3) ([2]; HeLa, 11, 33 and 100 nM): inhibition of luciferase activity
- luciferase expression ([2]; Table 40, pGL3-ERK5-3′UTR(x1), 11 nM): 81.9 percent untreated control
- luciferase expression ([2]; Table 40, pGL3-ERK5-3′UTR(x1), 33 nM): 84.7 percent untreated control
- luciferase expression ([2]; Table 40, pGL3-ERK5-3′UTR(x1), 100 nM): 62.2 percent untreated control
- luciferase expression ([2]; Table 41, pGL3-ERK5-3′UTR(ext), 11 nM): 89.0 percent untreated control
- luciferase expression ([2]; Table 41, pGL3-ERK5-3′UTR(ext), 33 nM): 106.7 percent untreated control
- luciferase expression ([2]; Table 41, pGL3-ERK5-3′UTR(ext), 100 nM): 81.4 percent untreated control
- luciferase expression ([2]; Table 41, pGL3-ERK5-3′UTR(x1), 11 nM): 92.2 percent untreated control
- luciferase expression ([2]; Table 41, pGL3-ERK5-3′UTR(x1), 33 nM): 108.1 percent untreated control
- luciferase expression ([2]; Table 41, pGL3-ERK5-3′UTR(x1), 100 nM): 81.9 percent untreated control
- luciferase expression ([2]; Table 41, pGL3-ERK5-3′UTR(x3), 11 nM): 51.7 percent untreated control
- luciferase expression ([2]; Table 41, pGL3-ERK5-3′UTR(x3), 33 nM): 51.0 percent untreated control
- luciferase expression ([2]; Table 41, pGL3-ERK5-3′UTR(x3), 100 nM): 28.2 percent untreated control
